The text below walks through data of ChEMBL document CHEMBL1156293, “Synthesis of a novel tricyclic 1,2,3,4,4a,5,6,10b-octahydro-1,10-phenanthroline ring system and CXCR4 antagonists with potent activity against HIV-1” (Bioorg Med Chem Lett, 2010).

The test system of series [1] is Human immunodeficiency virus 1. Description: Antiviral activity against HIV1 3B in human HOS cells expressing human […]/pHIV-LTR-luciferase assessed as blockade of viral infection into cells. It is filed as functional, organism-based. The settings on record: Human immunodeficiency virus 1, 3B.
Series [2] is described as follows: Cytotoxicity against human HOS cells. Type of series: cell-based.
Series [3] can be described thus: Volume of distribution at steady state in rat at 1 mg/kg, iv. It is filed as ADME, organism-based. On the set-up: dose 1 mg/kg, route intravenous. The settings on record: in vivo, read-out: Vdss.
A short description of series [4]: Volume of distribution at steady state in dog at 1 mg/kg, iv. It is filed as ADME, organism-based, Canis lupus familiaris. Set-up: dose 1 mg/kg, route intravenous. The conditions noted are these: in vivo, read-out: Vdss.
A short description of series [5]: Half life in rat at 3 mg/kg, po. It is filed as ADME, organism-based. On the set-up: dose 3 mg/kg, route oral. The conditions noted are these: in vivo.
Series [6] in a line: Half life in dog at 3 mg/kg, po. Type of series: ADME, organism-based, Canis lupus familiaris. Set-up: dose 3 mg/kg, route oral. The settings on record: in vivo.
In the next series the test system is Rattus norvegicus. Description: Dose normalized AUC in rat at 3 mg/kg, po. It is filed as ADME, organism-based. On the set-up: dose 3 mg/kg, route oral. The settings on record: in vivo.
Another series has as its system Canis familiaris. As to the kind of experiment: Dose normalized AUC in dog at 3 mg/kg, po. Set-up: dose 3 mg/kg, route oral. It is filed as ADME, organism-based, Canis lupus familiaris. The conditions noted are these: in vivo.

For the compound `CN1CCC(N(C)c2cccc3nc(CN4CCC[C@H]5CCc6cccnc6[C@H]54)cn23)C1` (some centres undefined), the 50% inhibitory concentration (IC50) in series [1] is 9 nM. Further, the midpoint of cytotoxicity in series [2], the CC50, lay at 1570 nM.

In the case of `CN(C)CCCn1c(CN2CCC[C@H]3CCc4cccnc4[C@@H]32)nc2ccccc21`, the 50% inhibitory concentration (IC50) in series [1] worked out at 330 nM. Moreover, the 50% cytotoxic concentration (CC50) in series [2] turned out to be 3700 nM.

For the compound `CN(C)CCCn1c(CN2CCC[C@@H]3CCc4cccnc4[C@H]32)nc2ccccc21`, in series [1], the IC50 was 140 nM. The same compound showed a 50% cytotoxic concentration (CC50) in series [2] of 3500 nM.

Turning to `CN1CCN(c2cccc3nc(CN4CCC[C@@H]5CCc6cccnc6[C@@H]54)cn23)CC1`, the IC50 in series [1] was determined as 100 nM. In series [2], this compound had a CC50 of 8500 nM.

As for `CN(C)[C@@H]1CCN(c2cccc3nc(CN4CCC[C@H]5CCc6cccnc6[C@H]54)cn23)C1`, the IC50 in series [1] worked out at 21 nM. Further, it took 1600 nM to reach half-maximal cytotoxicity in series [2] (CC50).

On to `CN1CCN(c2cccc3nc(CN(C)[C@H]4CCCc5cccnc54)cn23)CC1`, for which the Vd in series [3] came to 5.5 L/kg; in series [4], 7.6 L/kg. Besides, the results for the half-life in series [5] and in series [6] were 4.9 h and 8.5 h, respectively. Besides, the exposure (AUC) in the series on Rattus norvegicus is 100 ng·h/mL/(mg/kg); in the series on Canis familiaris it was 160 ng·h/mL/(mg/kg).

For `CN(C)CCN(C)c1cccc2nc(CN3CCC[C@H]4CCc5cccnc5[C@H]43)cn12`, the concentration for half-maximal inhibition (IC50) in series [1] worked out at 5 nM. This compound showed a CC50 in series [2] of 1450 nM.

As for `CN1CCC(N(C)c2cccc3nc(CN4CCC[C@H]5CCc6cccnc6[C@H]54)cn23)CC1`, the half-maximal inhibitory concentration (IC50) in series [1] stood at 38 nM. The same compound returned a CC50 in series [2] of 1300 nM.

Turning to `CN(C)CCCn1c(CN2CCC[C@@H]3CCc4cccnc4[C@@H]32)nc2ccccc21`, the half-maximal inhibitory concentration (IC50) in series [1] came out at 530 nM. In series [2], this compound had a half-maximal cytotoxic concentration (CC50) of 4200 nM.

In the case of `CN1CCN(c2cccc3nc(CN4CCC[C@@H]5CCc6cccnc6[C@H]54)cn23)CC1`, the concentration for half-maximal inhibition (IC50) in series [1] was 50 nM. Besides, the cytotoxic concentration (CC50) in series [2] came to 9900 nM.

As for `CN1CCN(c2cccc3nc(CN4CCCC5CCc6cccnc6C54)cn23)CC1` (racemic), the IC50 in series [1] is 32 nM. Moreover, the 50% cytotoxic concentration (CC50) in series [2] came to 9600 nM.

As to `c1cnc2c(c1)CC[C@@H]1CCCN(Cc3cn4c(N5CCOCC5)cccc4n3)[C@H]21`, the half-maximal inhibitory concentration (IC50) in series [1] was 1200 nM. In series [2], the CC50 was 6600 nM.

Take `CN(C)CCCn1c(CN2CCC[C@H]3CCc4cccnc4[C@H]32)nc2ccccc21`: the IC50 in series [1] stood at 35 nM. Besides, the CC50 in series [2] amounted to 6000 nM.

`CN(C)C1CCN(c2cccc3nc(CN4CCC[C@H]5CCc6cccnc6[C@H]54)cn23)CC1`: in series [1], the IC50 stood at 15 nM. The compound further showed a cytotoxic concentration (CC50) in series [2] of 3850 nM.

Regarding `c1cnc2c(c1)CC[C@@H]1CCCN(Cc3cn4c(N5CCN6CCCC6C5)cccc4n3)[C@H]21` (some centres undefined), the half-maximal inhibitory concentration (IC50) in series [1] came out at 2 nM. The compound further came in with a CC50 in series [2] of 2980 nM.

As a reminder, the IC50 is the concentration that gives 50% inhibition. Broadly, the CC50 is the concentration giving 50% cytotoxicity. As usually defined, the half-life is the time in which the quantity being followed falls by half. Higher therefore signals slow loss. In general, AUC refers to concentration integrated over time.
